Values of other authors in patent EP1232240B1, “DETERGENT COMPOSITIONS” (UNILEVER N.V., priority 1999, dated 2001).

Conditions: grams of solid to form a saturated solution in 100 grams of water at 20°C

Question: With NC(N)=O [Urea] as the compound, how does the “Water Solubility (g/100g)” value read?
Answer: The value was >100 g/100g.
